Measurements published in the CheMixHub viscosity set.

Test: xn = mol fraction of the nth substance listed
Conditions: 101 kPa

CCOc1ccccc1 + CCNc1ccccc1
viscosity [mPa·s]
Conditions | 293.15 K | 298.15 K | 303.15 K | 308.15 K | 313.15 K | 318.15 K | 323.15 K
x2 = 0.0508 | 1.253 | 1.161 | 1.063 | 0.999 | 0.933 | 0.868 | 0.808
x2 = 0.1098 | 1.291 | 1.19 | 1.088 | 1.021 | 0.953 | 0.884 | 0.823
x2 = 0.1509 | 1.317 | 1.211 | 1.105 | 1.036 | 0.965 | 0.896 | 0.832
x2 = 0.2097 | 1.355 | 1.241 | 1.131 | 1.057 | 0.983 | 0.91 | 0.845
x2 = 0.2533 | 1.386 | 1.265 | 1.151 | 1.072 | 0.996 | 0.921 | 0.855
x2 = 0.3046 | 1.423 | 1.295 | 1.176 | 1.093 | 1.012 | 0.935 | 0.866
x2 = 0.3501 | 1.459 | 1.323 | 1.2 | 1.112 | 1.028 | 0.948 | 0.878
x2 = 0.4081 | 1.51 | 1.364 | 1.234 | 1.141 | 1.052 | 0.967 | 0.894
x2 = 0.4533 | 1.552 | 1.397 | 1.262 | 1.164 | 1.071 | 0.984 | 0.908
x2 = 0.5003 | 1.599 | 1.435 | 1.295 | 1.191 | 1.094 | 1.003 | 0.924
x2 = 0.5519 | 1.655 | 1.479 | 1.333 | 1.223 | 1.122 | 1.027 | 0.944
x2 = 0.6068 | 1.719 | 1.531 | 1.377 | 1.26 | 1.153 | 1.054 | 0.967
x2 = 0.6496 | 1.772 | 1.574 | 1.414 | 1.291 | 1.18 | 1.077 | 0.986
x2 = 0.7065 | 1.846 | 1.633 | 1.464 | 1.333 | 1.215 | 1.107 | 1.012
x2 = 0.7497 | 1.906 | 1.682 | 1.506 | 1.367 | 1.244 | 1.131 | 1.033
x2 = 0.7998 | 1.978 | 1.739 | 1.554 | 1.407 | 1.278 | 1.16 | 1.058
x2 = 0.8505 | 2.055 | 1.798 | 1.604 | 1.447 | 1.311 | 1.188 | 1.082
x2 = 0.9019 | 2.133 | 1.859 | 1.653 | 1.487 | 1.344 | 1.214 | 1.105
x2 = 0.9502 | 2.205 | 1.914 | 1.699 | 1.525 | 1.374 | 1.239 | 1.125
